Assay results taken from patent US20160089464A1, “MALODOR REDUCTION COMPOSITIONS” (The Procter & Gamble Company, priority 2014, published 2016).
“Also recorded” adds a separate entry of the source.

Experiment: Comment Code material properties: vapor pressure, ClogP, probability of ingredient color instability, odor detection threshold, melamine formaldehyde PMC headspace response ratio and leakage, liquid dish neat product liquid-air partition coefficient
Type: physicochemical
[1] = cell strings several class symbols together, each letter is one property class of L1
[2] = Table 1 materials, each letter of the code is one property class (vapor pressure, ClogP, color instability, odor detection threshold, PMC headspace ratio, PMC leakage, liquid dish liquid-air partition coefficient)

| Comment Code [1] | Comment Code [2] | Compound |
| --- | --- | --- |
| DEFHJK | – | CC1C2CC(CC2C2CCC(O)CC2)C1(C)C (stereo not shown) [Material 230] |
| DEFHJK | – | CCCCCCCC(=O)OCCC(C)C [Material 237] |
| ACEFGIJKL | – | CC(C)CCOC(=O)C(C)C [Material 239] |
| DEFHJK; also recorded: BDEFHJK | – | CC1(C)C2=C(CO)CCC(C)(C)C23CCC1C3 (stereo not shown) [Material 248] |
| CEFHIK | – | O=C(O)CCc1ccccc1 [Material 255] |
| DHJK | – | CC1(C)CCc2ccc(CCC=O)cc21 [Material 260] |
| ADEFHIKL | – | CCCCCCOC(=O)CC [Material 264] |
| BDEFHJKL | – | CCCCCCOC(=O)CCC [Material 270] |
| BDEFHJKL | – | CCCCCCOC(=O)C(C)CC (stereo not shown) [Material 273] |
| DEFHJK | – | CCCCCCOC(=O)c1ccco1 [Material 275] |
| CEFGJK | – | CC(=O)OC1CC2CC1C1CC=CC21 (stereo not shown) [Material 281] |
| ACEFGIKL | – | CCCCCCCO [Material 282] |
| ADEFHKL | – | CCCCCCCOC(C)=O [Material 283] |
| ACHIKL | – | CCCCCCC=O [Material 284] |
| BCEFHKL | – | CC(C)=CCCC(C)=CC#N [Material 302] |
| BCEFHJK | – | CC(C)=CCC/C(C)=C/COC=O [Material 306] |
| DEFHJ | – | CCCCCCCC(=O)OC/C=C(\C)CCC=C(C)C [Material 308] |
| DFHJ | – | CC(C)=CCC/C(C)=C/COC(=O)c1ccccc1 [Material 310] |
| BCEFHJK | – | CCC(C)C(=O)N(C)c1ccccc1 (stereo not shown) [Material 314] |
| ADEFGIJKL | – | CC1=CCC(C(C)C)=CC1 [Material 319] |
| DFHJK | – | CC1=C2CC(C(C)(C)O)CCC2(C)CCC1 (stereo not shown) [Material 329] |
| DEFHJK | – | CC1COCc2cc3c(cc21)C(C)(C)C(C)C3(C)C (stereo not shown) [Material 335] |
| DEFHJK | – | CCC(=O)OC1CC2C3C=CCC3C1C2(C)C (stereo not shown) [Material 343] |
| CEFGJK | – | C/C=C1/CC2CC1C1CCC(=O)OC21 (stereo not shown) [Material 353] |
| BDHJK | – | CCc1ccccc1CC(C)(C)C=O [Material 354] |
| BDFHJK | – | CCOC(=O)OC1CCCCC1C(C)(C)C (stereo not shown) [Material 355] |

| Comment Code [1] | Comment Code [2] | Compound |
| --- | --- | --- |
| DEFHJK | – | CC(O)C(C)/C=C1\C[C@H]2C[C@@H]1[C@@H]1C=CC[C@H]21 (stereo partly shown) [Material 359] |
| DEFHJK | – | CC(=O)OC1CC2C3C=CCC3C1C2(C)C (stereo not shown) [Material 360] |
| ACFHIKL | – | CCOC(=O)OC1CCCCC1C(C)(C)C (stereo not shown) [Material 365] |
| ACGIJKL | – | CC12CCC(C1)C(C)(C)C2O (stereo not shown) [Material 366] |
| ADEFGIJKL | – | CC12CCC(CC1)C(C)(C)O2 [Material 376] |
| BDEFHJKL | – | CCCCCCCC(=O)OCC [Material 387] |
| BCEFHK | – | CCOC(=O)C=Cc1ccccc1 [Material 400] |
| BDFHIJKL | – | CCOC(=O)C(C)C1CCCCC1 (stereo not shown) [Material 412] |
| ACGIJKL | – | C=C(C)C1CCC(C)C(=O)C1 (stereo not shown) [Material 419] |
| BDEFHJK | – | CC1CCOC(c2ccccc2)C1 (stereo not shown) [Material 420] |
| BCFHIJKL | – | CCCCCC1=C(C)CCC1=O [Material 438] |
| ACEFGIJKL | – | CC1CC(=O)CC(C)(C)C1 (stereo not shown) [Material 439] |
| CEFHIJK | – | CCCc1ccc(O)c(OC)c1 [Material 440] |
| DEFHJKL | – | CC(=O)OC1CC2CC1C1CCCC21 (stereo not shown) [Material 441] |
| BCGIKL | – | O=C1CCc2ccccc2O1 [Material 442] |
| ACGIJKL | – | C=C(C)C1CCC(C)C(=O)C1 (stereo not shown) [Material 443] |
| BDEFHIJKL | – | CC(=O)OC(C)(C)C1CCC(C)CC1 (stereo not shown) [Material 447] |
| BDHIJK | – | CC(=O)CCC1C(C)=CCCC1(C)C (stereo not shown) [Material 448] |
| DEFHJK | – | c1ccc(COCc2ccccc2)cc1 [Material 454] |
| BDFHIKL | – | CCCCCC1CCCC1=O (stereo not shown) [Material 469] |
| ADEFHIJKL | – | COC(=O)C1(C)CCC(C)CC1 (stereo not shown) [Material 477] |
| BDEFHJKL | – | CC(=O)OCCC1CCCCC1 [Material 481] |
| DEFHJK | – | CCCC(=O)OC1CC2CC1C1CC=CC21 (stereo not shown) [Material 484] |
| DEFHJK | – | CC(C)C(=O)OC1CC2CC1C1C=CCC21 (stereo not shown) [Material 487] |
| DHJK | – | C=CC1(C)Cc2occ(C)c2CC1C(=C)C (stereo not shown) [Material 488] |
| ADEFGIKL | – | C=CC(C)=CC=CC(=C)C [Material 495] |

| Comment Code [1] | Comment Code [2] | Compound |
| --- | --- | --- |
| BDEFGIJK | – | CC(C)(O)CCC1CCCCC1 [Material 496] |
| DEFGJ | – | O=C1CCCCCCC/C=C/CCCCCCC1 [Material 501] |
| BDHJK | – | C=CC(C)(C#N)Cc1ccccc1 (stereo not shown) [Material 504] |
| BCEFGIKL | – | CC(C)=CCCC(C)CC#N (stereo not shown) [Material 509] |
| BCEFGJKL | – | CC(C)=CCCC(C)CCOC=O (stereo not shown) [Material 512] |
| DFHJ | – | CC(C)=CCCC(C)CCOC(=O)c1ccccc1 (stereo not shown) [Material 515] |
| BCHIJKL | – | CC(C)=CCCC(C)CCO (stereo not shown) [Material 517] |
| ACHIJKL | – | CC(C)=CCCC(C)CC=O (stereo not shown) [Material 518] |
| ADEFGIJKL | – | CC1CCC2CC1C2(C)C (stereo not shown) [Material 525] |
| BCHIJKL | – | CC/C=C\CC1=C(C)CCC1=O [Material 526] |
| CEFHIK | – | C/C=C\c1ccc(O)c(OC)c1 [Material 528] |
| BDEFHJKL | – | CC/C=C\CCOC(=O)CCCC [Material 535] |
| BDEFHJK | – | C/C=C(\C)C(=O)OCC/C=C\CC [Material 536] |
| ACEFHIKL | – | CC/C=C\CCOC(=O)CC [Material 538] |
| ADEFHJKL | – | CC/C=C\CCOC(=O)CCC [Material 540] |
| ACEFHIKL | – | CC/C=C\CCO [Material 542] |
| ACEFHIKL | – | CCC/C=C\CO [Material 547] |
| BCHIJK | – | Cc1cc(O)cc(C)c1Cl [Material 557] |
| – | DGJ | O=C1CCCCCCCCCCOCCCCO1 [Material 562] |
| BDEFHJK | ADEFHJK | COC1(C)CCC23CC1C(C)(C)C2CCC3C (stereo not shown) [Material 565] |
| BDEFHJK | BDEFHJK | CC1CCC2C(C)(C)C3CC12CCC3(C)OC=O (stereo not shown) [Material 566] |
| DEFHJK | DEFHJK | CC(=O)O[C@]1(C)CC[C@@]23C[C@@H]1C(C)(C)[C@@H]2CC[C@H]3C [Material 567] |
| – | DFHJK | CC1=CCCC2(C)OC2CCC(C)=CCC1 (stereo not shown) [Material 568] |
| DEFHJK | DEFHJK | C[C@@H]1CC[C@H]2C(C)(C)[C@H]3C[C@@]12CC[C@@]3(C)O [Material 569] |
| DEFHJK | DEFHJK | CC1=CCC(C23CCCC(C)(C2)OC3)C1(C)C (stereo not shown) [Material 570] |
| – | DFHJ | CC1=CCC(C23CCCC(C)(C2)OC3)C1(C)C (stereo not shown) [Material 571] |

| Comment Code [1] | Comment Code [2] | Compound |
| --- | --- | --- |
| – | BDEFHIJK | CC1C(C)(C)C2=C(C(=O)CCC2)C1(C)C (stereo not shown) [Material 572] |
| DEFHJK | DEFHJK | CC(=O)OC12CCCC(C)(CCC3C1CC3(C)C)C2 (stereo not shown) [Material 573] |
| DEFHJK | DEFHJK | CC12CCCC(O)(C1)C1CC(C)(C)C1CC2 (stereo not shown) [Material 574] |
| ACGIJKL | – | C=C(C)C1CC=C(C)C(=O)C1 (stereo not shown) [Material 576] |
| – | BDHIJK | C=C(C)C1CC=C(C)C(OC(C)=O)C1 (stereo not shown) [Material 577] |
| BCEFGIK | – | CCOCCOCCO [Material 579] |
| – | ACEFGIKL | CCCCCCCCO [Material 580] |
| – | DEFHJK | CCCCCCCCCC(=O)O [Material 582] |
| ACEFGIKL | – | CCCCCC(=O)O [Material 583] |
| – | ADHKL | CCCCCCCCCC=O [Material 584] |
| ACGIJKL | – | CC1=CCC(CC#N)C1(C)C (stereo not shown) [Material 585] |
| – | BCHJK | COc1ccc(CC(C)C=O)cc1 (stereo not shown) [Material 586] |
| – | ACEFGIJK | CC12CCC(C(=O)C1=O)C2(C)C (stereo not shown) [Material 587] |
| ACEFGIJKL | – | CC12CCC(CC1=O)C2(C)C (stereo not shown) [Material 588] |
| – | ADEFGIJKL | C=C1C2CCC(C2)C1(C)C (stereo not shown) [Material 589] |
| – | DHJ | CCCCCC1CC(=O)C=C(C)C1C(=O)OCC (stereo not shown) [Material 591] |
| – | DEFHJ | CCCCCCCCCCCCCCCCCC(=O)OCCCC [Material 594] |
| – | CEFGJK | CCCCOC(=O)C(C)OC(=O)CCC (stereo not shown) [Material 595] |
| – | DEFHJK | C=CCCCCCCCCC(=O)OCCCC [Material 599] |
| – | DEFHJK | CC1=CCC(CCC(C)CO)C1(C)C (stereo not shown) [Material 600] |
| – | BDHJK | CC(C)(C)c1ccc(CCC=O)cc1 [Material 601] |
| DHJK | – | CC1=C(C/C=C(\C)C=O)C(C)(C)CCC1 [Material 602] |
| – | BDEFHIJK | CC(C)C(=O)OC1CC2CCC1(C)C2(C)C (stereo not shown) [Material 603] |

| Compound | Comment Code [1] | Comment Code [2] |
| --- | --- | --- |
| O=Cc1ccc2c(c1)OCO2 [Material 287] | BCGIK | – |
| CC(=O)O.CCOc1cc(C=O)ccc1O [Material 379] | CHJ | – |
| CCCCOC(=O)c1ccccc1C(=O)OCCCC [Material 455] | DEFHJ | – |
| CC(C)=CCCC(C)CCOC(=O)Cc1ccccc1 (stereo not shown) [Material 510] | DFHJ | – |
| N#CC=Cc1ccccc1 [Material 549] | ACEFGIK | – |
| O=C/C=C/c1ccccc1 [Material 554] | ACHIK | – |
| N#C/C=C/c1ccccc1 [Material 556] | ACEFGIK | – |
| CC(=O)c1cc(C(C)(C)C)cc2c1CCC2(C)C [Material 563] | – | DEFHJK |
| Cc1ccc(C(C)C)cc1O [Material 575] | DHIJK | – |
| CCCCCCCC#N [Material 578] | – | ACEFGIKL |
